This is an account of results in US20100028334A1, “COMPOSITIONS AND METHODS TO POTENTIATE COLISTIN ACTIVITY” (TRUSTEES OF BOSTON UNIVERSITY, priority 2006, published 2010).

The test system of one data set is E. coli. Nature of the data set: minimum inhibitory concentration (MIC) assay of colistin with mefloquine. It is filed as cell-based. The procedure:
The efficacy of colistin in inhibiting the growth and/or suppressing survival of E. coli in the presence of one inhibitor, mefloquine was assessed in a minimum inhibitory concentration (MIC) assay.

Another data set concerns gram-positive bacteria. It is filed as cell-based. To be noted: used concurrently with colistin; data not shown.
Data set [1] concerns the target Escherichia coli H+-ATP synthase (Escherichia coli, UniProt P0AB98+P68699). To be noted: cited from earlier work.
A further data set relates to iscS mutant. The note with it: Rojas and Vasquez, 2005; cited from earlier work.
Data set [2] concerns wild-type, BW25113 E. coli cells. Nature of the data set: colony formation unit (CFU) assay, parent strain. It is filed as cell-based. The procedure:
(§1) The cells were incubated with colistin at a final concentration of 1.25 ug/ml. […] 10 ul of cells were plated onto LB agar [no colistin] plates. Number of colonies were counted after overnight incubation at 37 C. Colony count was normalized to get the same starting amount of cells for all strains. […] Log change in colony forming units per ml (CFU/ml) of wild-type, BW25113 E. coli cells (mean±s.d.) in presence or absence of colistin and potassium tellurite. Cell were grown in the absence or presence of colistin (1.25 ug/ml), potassium tellurite (1.6 ug/ml) alone and combined. […] Number of colonies were counted after overnight incubation at 37 C. Colony count was normalized to get the same starting amount of cells for all strains.
For CFU measurements, 50 μl of stationary phase culture was inoculated into 5 ml of LB. 240 or 245 μl of the freshly diluted cells were placed into wells of a 96 well plate (Costar), 5 μl of colistin and or potassium tellurite were added into each well to obtain a final volume of 250 μl. The 96 well plates were then incubated at 37° C. At the 0, 3 and 6 hours time points, 20 μl of culture was collected and then serially diluted in 180 μl of 1×PBS, pH 7.2 (Fisher). A 10 μl portion of each dilution was plated onto LB agar (Fisher)), and the plate was incubated overnight at 37° C. Dilutions that yielded between 20 and 100 colonies were counted and CFU were normalized to reflect the same amount of cells for the starting cultures.
The cells were grown with or without colistin, aliquots were taken at defined time points and serial dilution of the cells plated, colony count allowed to quantify the bactericidal effect of colistin. We noticed that the iscS and ubiH mutants were slow growers and formed small size colonies compared to the parent strain.

For data set [3] the following is noted: after intravenous administration of colistimethate (sodium); cited from earlier work.
The subject of the next data set is P aeruginosa. To be noted: recent studies; cited from earlier work.
The conditions of data set [4]: cited from earlier work.
For data set [5], the system named is ubiH and iscS mutant E. coli cells. Nature of the data set: colony formation unit (CFU) assay, deletion mutants. It is filed as cell-based. To be noted: colistin 1.25 ug/ml, FIG. 5A. How it is done:
as §1
For CFU measurements, 50 μl of stationary phase culture was inoculated into 5 ml of LB. 240 or 245 μl of the freshly diluted cells were placed into wells of a 96 well plate (Costar), 5 μl of colistin and or potassium tellurite were added into each well to obtain a final volume of 250 μl. […] Dilutions that yielded between 20 and 100 colonies were counted and CFU were normalized to reflect the same amount of cells for the starting cultures.
The cells were grown with or without colistin, aliquots were taken at defined time points and serial dilution of the cells plated, colony count allowed to quantify the bactericidal effect of colistin. […]

Regarding `OC(c1cc(C(F)(F)F)nc2c(C(F)(F)F)cccc12)C1CCCCN1` (stereo not shown) [mefloquine], the “potentiation of colistin efficacy by mefloquine” value with E. coli (mefloquine at concentrations above 50 μg/ml or greater) was “dose-dependent potentiation of colistin efficacy”. Moreover, the “potentiation of colistin against gram-positive bacteria” value in the data set on gram-positive bacteria is “potentiates colistin ability to decrease gram-positive bacteria”.
On to `CC[C@H]1/C=C/C=C/C[C@@H](C)[C@H](O)[C@@](C)(O)C(=O)[C@@H](C)[C@H](O)[C@@H](C)C(=O)[C@@H](C)[C@H](O)[C@@H](C)/C=C/C(=O)O[C@@H]2[C@H](C)[C@H](CC1)O[C@]1(CC[C@H](C)[C@H](C[C@@H](C)O)O1)[C@H]2C` [oligomycin], for which the “inhibition of ATP-driven proton transport and ATP hydrolysis” value in [1] is recorded as “weakly inhibited”.
Consider `O=[Te]([O-])[O-].[K+].[K+]` [potassium tellurite], for which the “sensitivity of iscS mutant” value with iscS mutant is “sensitive”. In addition, the “effect on CFU” value in [2] (potassium tellurite 1.6 ug/ml, 3 hour time point) is “not or little affecting the CFU”. For the same compound, in data set [2] (potassium tellurite 1.6 ug/ml, 6 hours), the growth inhibition entry was “stronger growth inhibition”.
Consider colistimethate, for which the “plasma half-lives relative to those of the colistin generated” value in data set [3] is recorded as “approximately half”. Moreover, the antibacterial activity entry in the data set on P aeruginosa was “non-active prodrug of colistin”.
Turning to colistin, the MIC of colistin with E. coli (in the absence of mefloquine) came out at 6.3 µg/mL. Also, the MIC of colistin required to suppress growth in the data set with E. coli (in the presence of 50 μg/ml of mefloquine) was determined as 6.3 µg/mL; in the data set with E. coli (in the presence of 100 μg/ml of mefloquine), 3.1 µg/mL; with E. coli (in the presence of 200 μg/ml of mefloquine), 0.8 µg/mL. Moreover, the “stability in human plasma” value in data set [4] is “more stable than colistimethate”. Moreover, the “viability of parent strain compared to non treated cells” value in [2] (colistin 1.25 ug/ml, 3 and 5 hour time points, FIG. 5A) is “no significant decrease in viability”. Besides, the “viability (CFU) compared to non treated cells” value in data set [2] (colistin 1.25 ug/ml, 3 hour time point, FIG. 5B) is “no significant decrease in viability”. In addition, in data set [2] (colistin 1.25 ug/ml, 5 hour time point, FIG. 5B), the “viability (CFU)” value was “decrease in viability”. For the same compound, in data set [5] (5 hour time point), the colony detection result is given as “almost no colony detection”. Also, the “viability of mutants when exposed to colistin” value in data set [5] was “significant decrease in viability”.
On to venturicidin, for which the “inhibition of ATP-driven proton transport and ATP hydrolysis” value in data set [1] is “strongly inhibited”.
